Patent publication US8399683B2 (TetraLogic Pharmaceuticals, priority 2008, dated 2013)

How the values were obtained:
XIAP BIR-3 = target: T1, XIAP BIR-3 (Homo sapiens, UniProt P98170); test: Fluorescence polarization binding affinity to XIAP BIR-3 (competition with AbuRPF-K(5-Fam)-NH2); details: 5 nM labeled peptide, 40 nM BIR3, 15 min at RT, pH 7.5; reported as ranges
T1 construct: 40 nM of the respective IAP BIR3
Experimental: (§1) The binding affinities of the compounds are reported as a KD value (μM). Briefly, various concentrations of test peptides were mixed with 5 nM of the fluorescently labeled peptide (i.e., a mutated N-terminal Smac peptide—AbuRPF-K(5-Fam)-NH2) and 40 nM of the respective IAP BIR3 for 15 min at RT in […] of 0.1M Potassium Phosphate buffer, pH 7.5 containing […] bovine g-globulin. Following incubation, the polarization values (mP) were measured on a Victor2V (available from PerkinElmer Life Sciences) using a 485 nm excitation filter and a 520 nm emission filter. The reported KD values are supplied as ranges (A=<0.1 μM, B=0.1 μM to 1 μM, C>1 μM to 10 μM, D=>10 μM).

cIAP-1 BIR-3 = cIAP-1 BIR-3 (Homo sapiens, UniProt Q13490); test: Fluorescence polarization binding affinity to cIAP-1 BIR-3 (competition with AbuRPF-K(5-Fam)-NH2); details: 5 nM labeled peptide, 40 nM BIR3, 15 min at RT, pH 7.5; reported as ranges; read-out: KD (c-IAP-1 BIR3)
Sequence of cIAP-1 BIR-3 (Q13490 266-352 limits assumed): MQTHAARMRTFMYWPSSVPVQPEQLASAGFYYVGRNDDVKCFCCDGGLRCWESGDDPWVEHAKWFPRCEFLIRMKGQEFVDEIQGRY
Experimental: as §1

SK-OV-3 cells = test: Growth inhibition of ovarian cancer cell line SK-OV-3 (MTT assay, cell survival); type: cell-based; details: Homo sapiens, drug concentration that results in 50% cell survival, 72 hrs incubation, reported as ranges
Experimental: Compounds of the invention also were tested for their ability to inhibit the growth of an ovarian cancer cell line, SK-OV-3. A known assay previously used for measuring cell growth (as described in Hansen, M. B., Nielsen, S. E., and Berg, K. (1989) J. Immunol. Methods 119, 203-210 and incorporated herein by reference in its entirety) was used. Briefly, SK-OV-3 cells are seeded in 96-well plates in McCoy's medium containing 10% fetal bovine serum albumin (5,000 per well) and incubated overnight at 37° C. The next day, test compounds are added at various concentrations (0.003-10 μM) and the plates are incubated at 37° C. for an additional 72 hrs. This incubation time was considered to be optimal for measuring inhibitory effects of the different compounds tested. 50 microliters of 5 mg/mL MTT reagent is added to each well and the plates are incubated at 37° C. for another three (3) hours. At the end of the three (3) hour incubation period, 50 microliters of DMSO is added to each well to dissolve cells and the optical density (OD) of the wells is measured with a microplate reader (Victor^2 1420, Wallac, Finland) at 535 nm. Cell survival (CS) was calculated using the following equation: CS=(OD treated well/mean OD control wells)×100%.
The CC50 (reported in the following tables), is defined as the drug concentration that results in 50% cell survival (CS), and is derived by calculating the point where the dose-response curve crosses the 50% CS point using GraphPad Prism. The reported CC50 values are supplied as ranges (A=<0.1 μM, B=0.1 μM to 1 μM, C=>1 μM to 10 μM, D=>10 μM).

T1 sequence (P98170 241-356 limits assumed): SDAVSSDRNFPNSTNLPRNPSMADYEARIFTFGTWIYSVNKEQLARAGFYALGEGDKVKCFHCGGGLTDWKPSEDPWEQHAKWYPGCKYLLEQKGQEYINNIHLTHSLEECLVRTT

Row | Structure (SMILES) | Kd (XIAP BIR-3) | Kd (cIAP-1 BIR-3) | CC50 (SK-OV-3 cells)
1 | CN[C@@H](C)C(=O)N[C@H](C(=O)N1CC[C@H]2NC[C@@H](c3c[nH]c4ccccc34)[C@H]21)C1CCCCC1 [Example 1, N-{1S-Cyclohexyl-2-[(3aR,6aR)-6R-(1H-indol-3-yl)-hexahydro-pyrrolo[3,2-b]pyrrol-1-yl]-2-oxo-ethyl}-2S-methylamino-propionamide] | > 10000 nM | > 10000 nM | 1000 to 10000 nM
2 | CN[C@@H](C)C(=O)N[C@H](C(=O)N1CC[C@H]2NC[C@H](c3c[nH]c4ccccc34)[C@H]21)C1CCCCC1 [Example 2, N-{1S-Cyclohexyl-2-[(3aR,6aR)-6S-(1H-indol-3-yl)-hexahydro-pyrrolo[3,2-b]pyrrol-1-yl]-2-oxo-ethyl}-2S-methylamino-propionamide] | < 100 nM | < 100 nM | 100 to 1000 nM
3 | CN[C@@H](C)C(=O)N[C@H](C(=O)N1CC[C@@H]2[C@H]1[C@H](c1c[nH]c3cc(F)ccc13)CN2C1CCCC1)C(C)(C)C [Example 3, N-{1-[4-Cyclopentyl-6-(6-fluoro-1H-indol-3-yl)-hexahydro-pyrrolo[3,2-b]pyrrole-1-carbonyl]-2,2-dimethyl-propyl}-2-methylamino-propionamide] | 1000 to 10000 nM | 1000 to 10000 nM | 1000 to 10000 nM
4 | CN[C@@H](C)C(=O)N[C@H](C(=O)N1CC[C@@H]2[C@H]1[C@@H](c1c[nH]c3cc(F)ccc13)CN2C1CCCC1)C(C)(C)C [Example 4] | < 100 nM | < 100 nM | < 100 nM
5 | CC[C@H](NC(=O)[C@H](C)NC)C(=O)N1CC[C@@H]2[C@H]1[C@H](c1c[nH]c3cc(F)ccc13)CN2C1CCCC1 [Example 5, N-{1-[4-Cyclopentyl-6-(6-fluoro-1H-indol-3-yl)-hexahydro-pyrrolo[3,2-b]pyrrole-1-carbonyl]-propyl}-2-methylamino-propionamide] | > 10000 nM | 100 to 1000 nM | 1000 to 10000 nM
6 | CC[C@H](NC(=O)[C@H](C)NC)C(=O)N1CC[C@@H]2[C@H]1[C@@H](c1c[nH]c3cc(F)ccc13)CN2C1CCCC1 [Example 6] | 100 to 1000 nM | 100 to 1000 nM | 100 to 1000 nM
7 | CN[C@@H](C)C(=O)N[C@H](C(=O)N1CC[C@@H]2[C@H]1[C@H](c1c[nH]c3cc(F)ccc13)CN2C1CCCC1)C(C)C [Example 7, N-{1-[4-Cyclopentyl-6-(6-fluoro-1H-indol-3-yl)-hexahydro-pyrrolo[3,2-b]pyrrole-1-carbonyl]-2-methyl-propyl}-2-methylamino-propionamide] | 1000 to 10000 nM | 100 to 1000 nM | 1000 to 10000 nM
8 | CN[C@@H](C)C(=O)N[C@H](C(=O)N1CC[C@@H]2[C@H]1[C@@H](c1c[nH]c3cc(F)ccc13)CN2C1CCCC1)C(C)C [Example 8] | 100 to 1000 nM | < 100 nM | 100 to 1000 nM
9 | CN[C@@H](C)C(=O)N[C@H](C(=O)N1CC[C@@H]2[C@H]1[C@@H](c1c[nH]c3cc(F)ccc13)CN2C1CCCC1)C1CCCCC1 [Example 9, N-{1-Cyclohexyl-2-[4-cyclopentyl-6-(6-fluoro-1H-indol-3-yl)-hexahydro-pyrrolo[3,2-b]pyrrol-1-yl]-2-oxo-ethyl}-2-methylamino-propionamide] | 100 to 1000 nM | < 100 nM | < 100 nM
10 | CN[C@@H](C)C(=O)N[C@@H](CO)C(=O)N1CC[C@@H]2[C@H]1[C@H](c1c[nH]c3cc(F)ccc13)CN2C1CCCC1 [Example 10, N-{2-[4-Cyclopentyl-6-(6-fluoro-1H-indol-3-yl)-hexahydro-pyrrolo[3,2-b]pyrrol-1-yl]-1-hydroxymethyl-2-oxo-ethyl}-2-methylamino-propionamide] | > 10000 nM | 100 to 1000 nM | 1000 to 10000 nM
11 | CN[C@@H](C)C(=O)N[C@@H](CO)C(=O)N1CC[C@@H]2[C@H]1[C@@H](c1c[nH]c3cc(F)ccc13)CN2C1CCCC1 [Example 11] | 100 to 1000 nM | < 100 nM | > 10000 nM
